From ChEMBL document CHEMBL1139135, “Orally active 4-amino-5-diarylurea-furo[2,3-d]pyrimidine derivatives as anti-angiogenic agent inhibiting VEGFR2 and Tie-2” (Bioorg Med Chem Lett, 2007)
Blank lines part the entries; values can stand above or below the compound they belong to. Active and inactive are the calls of the source. No cut-off for these calls is given here.

Key:
Angiopoietin-1 receptor [1] = molecular target: T1, Angiopoietin-1 receptor (Homo sapiens, UniProt Q02763); assay: Inhibition of human Tie2 by HTRF method
Target sequence in this assay (Q02763 whole entry): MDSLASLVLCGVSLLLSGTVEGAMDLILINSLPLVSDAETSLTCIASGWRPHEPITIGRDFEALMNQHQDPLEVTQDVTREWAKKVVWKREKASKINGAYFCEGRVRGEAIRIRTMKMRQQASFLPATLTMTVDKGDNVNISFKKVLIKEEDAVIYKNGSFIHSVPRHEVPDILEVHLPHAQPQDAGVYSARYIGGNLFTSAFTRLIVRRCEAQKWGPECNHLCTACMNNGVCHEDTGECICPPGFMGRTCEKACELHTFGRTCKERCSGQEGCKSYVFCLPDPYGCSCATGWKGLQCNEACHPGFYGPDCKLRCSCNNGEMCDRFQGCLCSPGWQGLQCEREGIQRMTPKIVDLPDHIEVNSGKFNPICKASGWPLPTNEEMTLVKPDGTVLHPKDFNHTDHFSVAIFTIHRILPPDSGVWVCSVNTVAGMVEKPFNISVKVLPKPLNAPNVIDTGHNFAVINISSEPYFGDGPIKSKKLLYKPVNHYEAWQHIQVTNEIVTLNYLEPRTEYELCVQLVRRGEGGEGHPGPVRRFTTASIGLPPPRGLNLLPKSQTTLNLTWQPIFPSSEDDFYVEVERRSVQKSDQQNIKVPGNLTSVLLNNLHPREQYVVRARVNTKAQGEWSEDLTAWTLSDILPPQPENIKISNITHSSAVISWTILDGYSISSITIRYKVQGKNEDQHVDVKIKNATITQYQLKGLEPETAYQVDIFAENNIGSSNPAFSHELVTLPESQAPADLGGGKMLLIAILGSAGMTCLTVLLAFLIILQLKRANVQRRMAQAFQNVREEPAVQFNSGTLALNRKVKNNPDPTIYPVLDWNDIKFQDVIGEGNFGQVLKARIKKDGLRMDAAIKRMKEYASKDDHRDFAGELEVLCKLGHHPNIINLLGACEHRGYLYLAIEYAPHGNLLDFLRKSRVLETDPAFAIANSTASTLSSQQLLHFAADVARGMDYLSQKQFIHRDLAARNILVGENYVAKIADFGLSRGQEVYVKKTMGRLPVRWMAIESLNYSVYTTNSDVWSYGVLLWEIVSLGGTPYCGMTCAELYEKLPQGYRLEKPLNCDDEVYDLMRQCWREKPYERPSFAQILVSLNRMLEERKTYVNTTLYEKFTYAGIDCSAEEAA

[2] = molecular target: Vascular endothelial growth factor receptor 2 (Homo sapiens, UniProt P35968); assay: Inhibition of human VEGFR2 by HTRF method
HUVEC = assay: Growth inhibition of VEGF-stimulated human HUVEC cells
HT-29 [3] = assay: Antiangiogenic activity against human HT29 cells xenografted in nude CD1 mouse assessed as decrease in blood vessel density at 30 mg/kg, po; format: functional; parameters: scale not given: the % may be the effect or the level left
Angiopoietin-1 receptor [4] = molecular target: T1, Angiopoietin-1 receptor; assay: Inhibition of c-fms/Tie2 chimeric receptor transfected in 3T3 cell assessed as autophosphorylation activity; format: cell-based
HT-29 [5] = assay: Antiangiogenic activity against human HT29 cells xenografted in nude CD1 mouse assessed as decrease in blood vessel density at 10 mg/kg, po; format: functional; parameters: scale not given: the % may be the effect or the level left
[6] = molecular target: Epidermal growth factor receptor (Homo sapiens, UniProt P00533); assay: Inhibition of human EGFR
HFF = assay: Cytotoxicity against human HFF cells after 3 days; settings: 72 h
[7] = Tmax in CD1 mouse at 10.7 mg/kg, po; format: ADME, organism-based; parameters: dose 10.7 mg/kg, route oral; settings: in vivo
HT-29 [8] = assay: Inhibition of tumor growth in human HT29 cells xenografted in orally dosed nude CD1 mouse; format: functional, organism-based
[9] = molecular target: Macrophage colony-stimulating factor 1 receptor (Homo sapiens, UniProt P07333); assay: Inhibition of human cFMS
[10] = molecular target: Vascular endothelial growth factor receptor 1 (Homo sapiens, UniProt P17948); assay: Inhibition of human VEGFR1
[11] = molecular target: Vascular endothelial growth factor receptor 3 (Homo sapiens, UniProt P35916); assay: Inhibition of human VGFR3
[12] = molecular target: Glycogen synthase kinase-3 (Homo sapiens, UniProt P49840+P49841); assay: Inhibition of human GSK3; format: protein assay
HT-29 [13] = assay: Antiangiogenic activity against human HT29 cells xenografted in nude CD1 mouse assessed as decrease in blood vessel density at 3 mg/kg, po; format: functional; parameters: scale not given: the % may be the effect or the level left
[14] = molecular target: Platelet-derived growth factor receptor (Homo sapiens, UniProt P09619+P16234); assay: Inhibition of human PDGFR; format: protein-complex assay
[15] = molecular target: RAC-gamma serine/threonine-protein kinase (Homo sapiens, UniProt Q9Y243); assay: Inhibition of human Akt3
HT-29 [16] = assay: Antiangiogenic activity against human HT29 cells xenografted in nude CD1 mouse; format: functional
HT-29 [17] = assay: Cytotoxicity against human HT29 cells after 3 days; settings: HT-29, 72 h
[18] = molecular target: Proto-oncogene tyrosine-protein kinase Src (Homo sapiens, UniProt P12931); assay: Inhibition of human SRC
[19] = AUC (0 to t) in CD1 mouse at 10.7 mg/kg, po; format: ADME, organism-based; parameters: dose 10.7 mg/kg, route oral; settings: plasma
[20] = Cmax in CD1 mouse at 10.7 mg/kg, po; format: ADME, organism-based; parameters: dose 10.7 mg/kg, route oral; settings: in vivo
[21] = molecular target: Cyclin-dependent kinase 2 (Homo sapiens, UniProt P24941); assay: Inhibition of human CDK2

Chain of Vascular endothelial growth factor receptor 2 (P35968 whole entry, looked up): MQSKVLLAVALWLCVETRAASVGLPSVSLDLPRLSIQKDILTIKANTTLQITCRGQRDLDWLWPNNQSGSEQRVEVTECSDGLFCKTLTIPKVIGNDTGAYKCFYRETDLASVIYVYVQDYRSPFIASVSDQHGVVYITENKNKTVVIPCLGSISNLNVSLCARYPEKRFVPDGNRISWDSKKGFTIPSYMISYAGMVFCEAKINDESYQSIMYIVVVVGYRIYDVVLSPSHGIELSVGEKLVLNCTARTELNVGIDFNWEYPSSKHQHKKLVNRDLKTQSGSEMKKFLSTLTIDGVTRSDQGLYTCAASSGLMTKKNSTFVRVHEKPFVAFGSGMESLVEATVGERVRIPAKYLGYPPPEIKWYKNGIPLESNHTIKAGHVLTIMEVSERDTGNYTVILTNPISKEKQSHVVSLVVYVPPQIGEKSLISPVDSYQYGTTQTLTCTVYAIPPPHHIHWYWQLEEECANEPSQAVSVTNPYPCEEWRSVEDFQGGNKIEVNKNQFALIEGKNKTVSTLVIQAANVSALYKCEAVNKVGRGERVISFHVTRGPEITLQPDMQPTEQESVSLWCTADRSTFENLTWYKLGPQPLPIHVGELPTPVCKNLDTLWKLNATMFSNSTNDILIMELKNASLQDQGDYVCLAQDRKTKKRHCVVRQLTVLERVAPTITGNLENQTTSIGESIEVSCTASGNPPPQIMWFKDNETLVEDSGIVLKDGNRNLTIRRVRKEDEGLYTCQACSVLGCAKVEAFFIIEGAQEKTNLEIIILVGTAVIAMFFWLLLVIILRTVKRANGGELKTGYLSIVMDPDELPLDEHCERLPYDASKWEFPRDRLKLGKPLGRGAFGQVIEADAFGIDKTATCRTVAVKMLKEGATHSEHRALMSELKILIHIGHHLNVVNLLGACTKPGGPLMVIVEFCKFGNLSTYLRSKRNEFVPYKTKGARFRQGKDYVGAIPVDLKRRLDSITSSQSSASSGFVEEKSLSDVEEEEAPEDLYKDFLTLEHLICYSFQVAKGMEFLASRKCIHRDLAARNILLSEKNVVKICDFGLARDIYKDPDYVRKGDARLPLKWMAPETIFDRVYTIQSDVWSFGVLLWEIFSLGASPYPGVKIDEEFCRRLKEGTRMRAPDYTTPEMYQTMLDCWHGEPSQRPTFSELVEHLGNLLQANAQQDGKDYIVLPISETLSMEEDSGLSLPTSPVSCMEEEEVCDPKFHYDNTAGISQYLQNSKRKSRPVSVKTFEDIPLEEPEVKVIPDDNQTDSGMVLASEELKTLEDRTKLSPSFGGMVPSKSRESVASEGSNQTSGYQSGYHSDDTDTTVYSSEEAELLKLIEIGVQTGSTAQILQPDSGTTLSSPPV
Chain of Proto-oncogene tyrosine-protein kinase Src (P12931 2-536 limits assumed): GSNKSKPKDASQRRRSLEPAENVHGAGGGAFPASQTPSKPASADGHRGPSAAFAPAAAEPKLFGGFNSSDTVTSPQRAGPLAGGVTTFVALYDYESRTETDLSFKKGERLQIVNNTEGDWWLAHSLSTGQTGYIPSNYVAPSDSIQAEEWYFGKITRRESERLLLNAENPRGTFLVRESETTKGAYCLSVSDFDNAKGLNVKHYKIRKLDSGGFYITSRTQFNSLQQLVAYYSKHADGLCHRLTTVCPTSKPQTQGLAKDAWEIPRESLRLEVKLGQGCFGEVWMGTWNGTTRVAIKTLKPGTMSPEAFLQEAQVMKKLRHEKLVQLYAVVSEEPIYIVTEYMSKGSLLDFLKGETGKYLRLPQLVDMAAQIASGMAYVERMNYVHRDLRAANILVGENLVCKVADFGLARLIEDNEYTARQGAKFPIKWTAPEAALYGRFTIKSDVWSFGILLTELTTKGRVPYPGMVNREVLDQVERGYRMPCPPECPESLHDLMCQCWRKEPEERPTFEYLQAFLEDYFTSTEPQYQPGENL
Chain of Epidermal growth factor receptor (P00533 whole entry): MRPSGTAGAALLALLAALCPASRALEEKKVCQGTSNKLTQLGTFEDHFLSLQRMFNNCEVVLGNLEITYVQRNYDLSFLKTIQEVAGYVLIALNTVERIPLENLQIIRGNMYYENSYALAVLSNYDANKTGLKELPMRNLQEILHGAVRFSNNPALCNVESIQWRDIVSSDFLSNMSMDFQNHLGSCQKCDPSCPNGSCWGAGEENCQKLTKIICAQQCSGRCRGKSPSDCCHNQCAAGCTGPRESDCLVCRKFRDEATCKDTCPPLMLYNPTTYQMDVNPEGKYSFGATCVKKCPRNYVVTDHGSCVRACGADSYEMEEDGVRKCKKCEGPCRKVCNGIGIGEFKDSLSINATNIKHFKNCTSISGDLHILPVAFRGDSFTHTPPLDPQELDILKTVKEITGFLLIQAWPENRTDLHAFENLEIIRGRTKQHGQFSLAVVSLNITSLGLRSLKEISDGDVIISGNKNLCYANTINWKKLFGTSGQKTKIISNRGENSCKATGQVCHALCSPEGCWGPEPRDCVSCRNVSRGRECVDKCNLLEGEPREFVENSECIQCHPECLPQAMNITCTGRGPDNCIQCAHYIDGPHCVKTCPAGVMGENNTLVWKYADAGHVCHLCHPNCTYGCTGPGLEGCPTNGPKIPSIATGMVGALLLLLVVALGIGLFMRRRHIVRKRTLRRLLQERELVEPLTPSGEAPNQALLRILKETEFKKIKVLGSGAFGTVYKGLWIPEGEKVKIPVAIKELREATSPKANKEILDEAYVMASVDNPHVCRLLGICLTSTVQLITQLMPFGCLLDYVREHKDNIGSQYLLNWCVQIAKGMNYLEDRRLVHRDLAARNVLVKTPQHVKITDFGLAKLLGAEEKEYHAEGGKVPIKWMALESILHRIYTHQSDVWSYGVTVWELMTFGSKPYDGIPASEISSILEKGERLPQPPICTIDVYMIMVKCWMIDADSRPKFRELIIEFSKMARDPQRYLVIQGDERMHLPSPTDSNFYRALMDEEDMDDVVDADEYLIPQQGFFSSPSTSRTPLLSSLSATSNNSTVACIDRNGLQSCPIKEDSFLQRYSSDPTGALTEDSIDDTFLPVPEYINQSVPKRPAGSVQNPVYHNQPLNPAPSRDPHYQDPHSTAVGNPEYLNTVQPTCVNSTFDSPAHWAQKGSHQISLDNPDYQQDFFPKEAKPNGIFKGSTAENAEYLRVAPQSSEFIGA
Chain of RAC-gamma serine/threonine-protein kinase (Q9Y243 whole entry): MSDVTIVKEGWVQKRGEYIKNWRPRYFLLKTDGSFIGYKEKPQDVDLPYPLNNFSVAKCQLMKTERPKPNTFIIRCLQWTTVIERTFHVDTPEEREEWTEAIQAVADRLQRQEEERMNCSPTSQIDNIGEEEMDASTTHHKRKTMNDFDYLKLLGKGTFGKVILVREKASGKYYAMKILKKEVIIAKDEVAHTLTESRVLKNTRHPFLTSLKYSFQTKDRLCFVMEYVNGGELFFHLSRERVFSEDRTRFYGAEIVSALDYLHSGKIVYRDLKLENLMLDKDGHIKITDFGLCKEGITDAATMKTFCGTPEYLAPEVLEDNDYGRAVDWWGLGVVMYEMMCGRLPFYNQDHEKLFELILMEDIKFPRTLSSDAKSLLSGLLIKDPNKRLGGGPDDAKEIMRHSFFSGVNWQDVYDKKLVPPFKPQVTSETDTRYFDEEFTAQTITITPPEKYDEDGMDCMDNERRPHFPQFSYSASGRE

IC50 (Angiopoietin-1 receptor [1]): 81.3 nM
IC50 [2]: 24 nM
Structure (SMILES): Nc1ncnc2occ(-c3ccc(NC(=O)Nc4ccc5ccccc5c4)cc3)c12

IC50 (Angiopoietin-1 receptor [1]): 182 nM
IC50 [2]: 447 nM
Structure (SMILES): Nc1ncnc2occ(-c3ccc(NC(=O)Nc4cccc5ccccc45)cc3)c12

IC50 (Angiopoietin-1 receptor [1]): 407 nM
IC50 [2]: 1740 nM
Structure (SMILES): Nc1ncnc2occ(-c3ccc(NC(=O)Nc4cccc(Oc5ccccc5)c4)cc3)c12

IC50 (Angiopoietin-1 receptor [1]): 380 nM
Structure (SMILES): Nc1ncnc2occ(-c3ccc(NC(=O)Nc4cc(C(F)(F)F)cc(C(F)(F)F)c4)cc3)c12 [GW795486X]

IC50 (Angiopoietin-1 receptor [1]): 10.2 nM
IC50 [2]: 7.08 nM
Structure (SMILES): Nc1ncnc2occ(-c3ccc(NC(=O)Nc4cccc(C(F)(F)F)c4)cc3)c12 [GW795493X]

IC50 (Angiopoietin-1 receptor [1]): 224 nM
IC50 [2]: 331 nM
Structure (SMILES): COc1ccc(F)c(NC(=O)Nc2ccc(-c3coc4ncnc(N)c34)cc2)c1

IC50 (Angiopoietin-1 receptor [4]): 18.3 nM
IC50 [6]: 10000 nM
Tmax [7]: 2 h
IC50 [9]: 38.9 nM
IC50 [10]: 8.51 nM
IC50 [11]: 7.59 nM
Log IC50 [12]: -5.66
IC50 [14]: 27.5 nM
IC50 [15]: 17400 nM
IC50 [18]: 537 nM
AUC(0-t) [19]: 20000 ng·h/mL
Cmax [20]: 2720 ng/mL
IC50 [21]: 17800 nM
IC50 (Angiopoietin-1 receptor [1]): 13.5 nM
IC50 [2]: 7.76 nM
Structure (SMILES): Nc1ncnc2occ(-c3ccc(NC(=O)Nc4cc(C(F)(F)F)ccc4F)cc3)c12 [GW770249X]
IC50 (HUVEC): 2.6 nM
Activity (HT-29 [3]): 62.9%
Activity (HT-29 [5]): 35.6%
IC50 (HFF): 2510 nM
Activity (HT-29 [8]): Dose-dependent effect
Activity (HT-29 [13]): 24.3%
Activity (HT-29 [16]): Active
IC50 (HT-29 [17]): 5080 nM

IC50 (Angiopoietin-1 receptor [1]): 204 nM
IC50 [2]: 186 nM
Structure (SMILES): Nc1ncnc2occ(-c3ccc(NC(=O)Nc4cc(C(F)(F)F)ccc4Cl)cc3)c12
